Test results from US9187431B2, “Substituted phenyl(oxy/thio)alkanol derivatives” (Bayer Intellectual Property GMBH, priority 2009, dated 2015).

Columns and labels:
Fusarium proliferatum = experiment: microbe, parasite or virus in culture; assay type: cell-based; conditions: 120 h, read-out: inhibition of fumonisin FB1 production
Fusarium graminearum = experiment: microbe, parasite or virus in culture; assay type: cell-based; conditions: 168 h, read-out: inhibition of DON/AcDON production
[1] = assay type: physicochemical; conditions: pH 2.7
Protocol: The log P values were measured according to EEC directive 79/831 Annex V.A8 by HPLC (High Performance Liquid Chromatography) on reversed-phase columns (C 18), using the methods below: [α] The LC-MS determination in the acidic range is carried out at pH 2.7 using the mobile phases 0.1% aqueous formic acid and acetonitrile (contains 0.1% formic acid), linear gradient from 10% acetonitrile to 95% acetonitrile

Pyricularia oryzae = assay type: in vivo, Pyricularia oryzae on rice; conditions: 500 ppm active compound, protective, rice, evaluation 7 days after inoculation
Rhizoctonia solani = experiment: Rhizoctonia test (rice)/protective; assay type: in vivo, Rhizoctonia solani on rice; conditions: 500 ppm active compound, protective, evaluation 4 days after inoculation
Protocol: Rhizoctonia Test (Rice)/Protective [table] To produce a suitable preparation of active compound, 1 part by weight of active compound is mixed with the stated amount of solvent, and the concentrate is diluted with water and the stated amount of emulsifier to the desired concentration. To test for protective activity, young rice plants are sprayed with the preparation of active compound at the stated application rate. 1 day after the treatment, the plants are inoculated with hyphae of Rhizoctonia solani. The plants are then placed in a greenhouse at a relative atmospheric humidity of 100% and a temperature of 25° C.

Cochliobolus miyabeanus = experiment: Cochliobolus test (rice)/protective; assay type: in vivo, Cochliobolus miyabeanus on rice; conditions: 500 ppm active compound, protective, evaluation 7 days after inoculation
[2] = test system: Setaria viridis (green foxtail); experiment: Phytoregulatory pre-emergence action, SETVI; assay type: in vivo; conditions: 320 g of a.i./ha, visual assessment after approx. 3 weeks
Protocol: (§1) Phytoregulatory Pre-Emergence Action Seeds of monocotyledonous or dicotyledonous crop plants are placed in wood-fibre pots in sandy loam and covered with soil. […] After the treatment, the pots are placed in a greenhouse and kept under good growth conditions for the test plants. The visual assessment of the suppression of growth in the test plants is carried out after a trial period of approx. 3 weeks by comparison with untreated controls (phytoregulatory activity in percent: 100% activity=maximum inhibition of plant growth, 0% activity=plant growth like that of an untreated control.)

[3] = test system: Triticum aestivum (common wheat); experiment: Phytoregulatory pre-emergence action, TRZAS; assay type: in vivo; conditions: 320 g of a.i./ha, visual assessment after approx. 3 weeks
Protocol: as §1

Brassica napus (rape) = experiment: Phytoregulatory pre-emergence action, BRSNW; assay type: in vivo; conditions: 320 g of a.i./ha, visual assessment after approx. 3 weeks
Protocol: as §1

[4] = test system: Viola tricolor (wild pansy); experiment: Phytoregulatory pre-emergence action, VIOTR; assay type: in vivo; conditions: 320 g of a.i./ha, visual assessment after approx. 3 weeks
Protocol: as §1

[5] = test system: Abuthilon theophrasti (velvetleaf); experiment: Phytoregulatory pre-emergence action, ABUTH; assay type: in vivo; conditions: 320 g of a.i./ha, visual assessment after approx. 3 weeks
Protocol: as §1

Phakopsora pachyrhizi = experiment: Phakopsora test (soya bean)/protective; assay type: in vivo, Phakopsora pachyrhizi on soya bean; conditions: 250 ppm, protective, evaluation 11 days after inoculation

Compound | logP [1] | other results
CC(C)(C)C(O)(COc1ccc(Br)c(F)c1F)c1cncnc1 (stereo not drawn) [Compound 13] |  | inhibition at 50 µM (Fusarium proliferatum): > 80%; inhibition at 50 µM (Fusarium graminearum): > 80%
CC(C)(C)C(O)(COc1ccc(Br)c(OC(F)(F)F)c1)Cn1cncn1 (stereo not drawn) [Compound 35] | logP 3.72^[a], [M]^+ = 440/441 | 
Cc1cc(Br)cc(Cl)c1OCC(O)(Cn1cncn1)C(C)(C)C (stereo not drawn) [Compound 25] | logP 3.99 ^[a], [M]^+ = 403.9/407 | 
Cc1cc(OCC(O)(Cn2cncn2)C2(C)CC2)cc(C)c1I (stereo not drawn) [Compound 46] | logP 3.68 ^[a], [M]^+ = 428/430 | 
CC1(C(O)(COc2ccc(Br)c(F)c2F)Cn2cncn2)CC1 (stereo not drawn) [Compound 44] | logP 2.95 ^[a], [M]^+ = 390/391 | 
CC(C)(C)C(O)(COc1c(F)cc(Br)cc1F)Cn1cncn1 (stereo not drawn) [Compound 31] | logP 3.37 ^[a], [M]^+ = 392/394 | 
Cc1cc(Br)ccc1OCC(O)(c1cncnc1)C(C)(C)C (stereo not drawn) [Compound 12] |  | efficacy (Pyricularia oryzae): ≥ 80%; efficacy (Rhizoctonia solani): ≥ 80%; efficacy (Cochliobolus miyabeanus): ≥ 80%; inhibition at 50 µM (Fusarium proliferatum): > 80%; inhibition at 50 µM (Fusarium graminearum): > 80%; Inhibition of the growth of useful or harmful plants in %, SETVI [2]: 90%; Inhibition of the growth of useful or harmful plants in %, TRZAS [3]: 50%; Inhibition of the growth of useful or harmful plants in %, BRSNW (Brassica napus (rape)): 60%; Inhibition of the growth of useful or harmful plants in %, VIOTR [4]: 90%; Inhibition of the growth of useful or harmful plants in %, ABUTH [5]: 80%
CC(C)(C)C(O)(COc1ccc(Cl)cc1Cl)c1cncnc1 (stereo not drawn) [EP-A 0 028 755, Example 5, reference compound] |  | Inhibition of the growth of useful or harmful plants in %, SETVI [2]: 80%; Inhibition of the growth of useful or harmful plants in %, TRZAS [3]: 40%; Inhibition of the growth of useful or harmful plants in %, BRSNW (Brassica napus (rape)): 60%; Inhibition of the growth of useful or harmful plants in %, VIOTR [4]: 90%; Inhibition of the growth of useful or harmful plants in %, ABUTH [5]: 40%
Cc1cc(I)cc(C)c1OCC(O)(Cn1cncn1)C(C)(C)C (stereo not drawn) [Compound 38] | logP 4.04 ^[a], [M]^+ = 430/432 | 
Cc1cc(OCC(O)(Cn2cncn2)C(C)(C)C)c(C)cc1I (stereo not drawn) [Compound 36] | logP 4.15 ^[a], [M]^+ = 430/432 | 
CC(C)(C)C(O)(COc1cc(F)c(Br)cc1F)Cn1cncn1 (stereo not drawn) [Compound 29] | logP 3.21 ^[a], [M]^+ = 392/394 | 
CC(C)(C)C(O)(COc1ccc(Br)c(C(F)(F)F)c1)Cn1cncn1 (stereo not drawn) [Compound 32] | logP 3.59 ^[a], [M]^+ = 424/426 | 
CC(C)(C)C(O)(COc1ccc(Br)c(F)c1F)Cn1cncn1 (stereo not drawn) [Compound 34] | logP 3.29 ^[a], [M]^+ = 392/394 | 
COc1cc(OCC(O)(Cn2cncn2)C2(C)CC2)ccc1Br (stereo not drawn) [Compound 42] | logP 2.67 ^[a], [M]^+ = 384/386 | 
CC(C)(C)C(O)(COc1c(F)cc(Br)cc1Cl)Cn1cncn1 (stereo not drawn) [Compound 28] | logP 3.76 ^[a], [M]^+ =407.9/411 | 
CC(C)(C)C(O)(COc1c(Cl)cc(Br)cc1Cl)Cn1cncn1 (stereo not drawn) [Compound 21] | logP 4.04 ^[a], [M]^+ = 423.9/426 | 
Cc1cc(Br)ccc1OCC(O)(Cn1cncn1)C(C)(C)C (stereo not drawn) [Compound 22] | logP 3.5 ^[a], [M]^+ = 370/372 | 

Compound | logP [1] | other results
CC(C)(C)C(O)(COc1ccc(Br)cc1Cl)Cn1cncn1 (stereo not drawn) [Compound 26] | logP 3.59 ^[a], [M]^+ = 389.9/393 | 
Cc1cc(OCC(O)(Cn2cncn2)C(C)(C)C)cc(C)c1Br (stereo not drawn) [Compound 23] | logP 3.85 ^[a], [M]^+ = 384/386 | 
CC(C)(C)C(O)(COc1ccc(Br)cc1F)Cn1cncn1 (stereo not drawn) [Compound 8] |  | efficacy (Phakopsora pachyrhizi): ≥ 80%
Cc1cc(OCC(O)(Cn2cncn2)C2(C)CC2)c(C)cc1I (stereo not drawn) [Compound 45] | logP 3.76 ^[a], [M]^+ = 428/430 | 
Cc1cc(OCC(O)(Cn2cncn2)C2(C)CC2)ccc1Br (stereo not drawn) [Compound 48] | logP 3.1 ^[a], [M]^+ = 368/369 | 
CC(C)(C)C(O)(COc1ccc(Br)c(F)c1)Cn1cncn1 (stereo not drawn) [Compound 30] | logP 3.13 ^[a], [M]^+ = 374/376 | 
COc1cc(Br)ccc1OCC(O)(Cn1cncn1)C(C)(C)C (stereo not drawn) [Compound 20] | logP 3.09 ^[a], [M]^+ = 386/388 | 
Cc1cc(OCC(O)(Cn2cncn2)C2(C)CC2)cc(C)c1Br (stereo not drawn) [Compound 39] | logP 3.5 ^[a], [M]^+ = 382/384 | 
CC1(C(O)(COc2ccc(Br)cc2Cl)Cn2cncn2)CC1 (stereo not drawn) [Compound 41] | logP 3.22 ^[a], [M]^+ = 388/391 | 
Cc1cc(OCC(O)(Cn2cncn2)C(C)(C)C)cc(C)c1I (stereo not drawn) [Compound 37] | logP 4.04 ^[a], [M]^+ = 430/432 | 
Cc1cc(Br)cc(C)c1OCC(O)(Cn1cncn1)C(C)(C)C (stereo not drawn) [Compound 24] | logP 3.85 ^[a], [M]^+ = 384/386 | 
Cc1cc(OCC(O)(Cn2cncn2)C(C)(C)C)ccc1Br (stereo not drawn) [Compound 19] | logP 3.41 ^[a], [M]^+ = 370/372 | 
CC1(C(O)(COc2cc(F)c(Br)c(F)c2)Cn2cncn2)CC1 (stereo not drawn) [Compound 43] | logP 2.95 ^[a], [M]^+ = 390/391 | 
Cc1cc(Br)cc(Cl)c1OCC(O)(Cn1cncn1)C1(C)CC1 (stereo not drawn) [Compound 40] | logP 3.68 ^[a], [M]^+ = 402/405 | 
CC(C)(C)C(O)(COc1cc(F)c(Br)c(F)c1)Cn1cncn1 (stereo not drawn) [Compound 33] | logP 3.25 ^[a], [M]^+ = 392/394 | 
Cc1cc(I)ccc1OCC(O)(Cn1cncn1)C1(C)CC1 (stereo not drawn) [Compound 47] | logP 3.37 ^[a], [M]^+ = 414/416 | 
COc1cc(OCC(O)(Cn2cncn2)C(C)(C)C)ccc1Br (stereo not drawn) [Compound 27] | logP 2.92 ^[a], [M]^+ = 386/388 | 
